In paper PMC8911025, “Design, Synthesis, and Biological Evaluation of New Azulene-Containing Chalcones” (Materials, 2022):
Converted amounts (≈) assume the structure as drawn.

Legend:
S. aureus [1] = assay: Known antibacterial activity of literature chalcones used for QSAR; type: cell-based, Staphylococcus aureus; conditions: Aexp = 0.1 + log (k/MIC), k = 1.250
Description: The QSAR studies were carried out on 48 chalcones, including 10 synthesized azulenyl-chalcones, in order to identify the physicochemical parameter responsible for their antimicrobial activity against Staphylococcus aureus. The geometry optimization of the molecules was completed using PCModel and MOPAC programs. The descriptors were calculated using MOPAC, PRECLAV, and DRAGON software, and the descriptors and QSAR equations were selected using the PRECLAV algorithm. The best QSAR model was chosen based on the statistical parameters such as the square of the correlation coefficient (r^2), the Fischer’s value of significance (F), and the standard error of estimate(s).
Quantitative structure−activity relationship (QSAR) studies involving 38 chalcone derivatives (Table 7) with known antibacterial activity against S. aureus were developed. These studies were based upon observed activity and molecular descriptors. […] Two QSAR studies were performed: (i) one in which all 48 molecules were included in the calibration set and (ii) another with an external validation test. For the latter, 10 molecules were randomly chosen to be part of the validation test, whereas the rest were part of the calibration set. The result of the external validation depends strongly, among other things, on the procedures for the extraction of the calibration and validation sets from the initial database.

S. aureus [2] = system: S. aureus; set-up: method as in PMID 15801857, PMID 19275612, PMID 15142563; conditions: literature chalcones Nr. Crtl. 1-38 of Table 7; cited from earlier work
[3] = system: Escherichia coli ATCC 25922; assay: MIC, binary serial dilution in 96-well plates; type: cell-based; conditions: ATCC25922; Escherichia coli ATCC 25922, 24 h at 37 °C
Description: (§1) The antimicrobial activity of all compounds was assessed on Gram-positive bacteria (Staphylococcus aureus ATCC 25923), Gram-negative bacteria (Escherichia coli ATCC 25922, Pseudomonas aeruginosa ATCC 27853), and fungi (Candida parapsilosis ATCC 22019) using quantitative binary serial dilution method in 96-well plates. The negative control was represented by wells with culture medium, while positive control was the microbial strain in broth. Briefly, binary serial dilutions of the compounds performed in 100 μL of broth were seeded with microbial inoculum of 10^6 colony forming units (CFU)/mL and incubated for 24 h at 37 °C. […] Due to the fact that the obtained compounds were colored, after the incubation of the 96-well plates, from each well, 10 µL were seeded on agar plates (Plate Count Agar) to determine the inhibitory concentration. The same value of the inhibitory concentration was obtained in repeated experiments.
(§2) The antibacterial effect of the azulene moiety introduced in the chalcone structure was investigated against Gram-positive (Staphylococcus aureus ATCC 25923) and Gram-negative (Escherichia coli ATCC 25922, Pseudomonas aeruginosa ATCC 27853) bacteria, while the antifungal effect was tested against Candida parapsilosis ATCC 22019. To our knowledge, the antibacterial activity of azulene-containing chalcone compounds has not been reported previously; moreover, this is the first investigation of the biological properties of azulene-containing chalcones in general. The results expressed in terms of minimum inhibitory concentration (MIC) were determined by in vitro screening of the antimicrobial properties using the broth microdilution method and are summarized in Table 5.

[4] = system: Pseudomonas aeruginosa ATCC 27853; assay: MIC, binary serial dilution in 96-well plates; type: cell-based; conditions: ATCC27853; Pseudomonas aeruginosa ATCC 27853, 24 h at 37 °C
Description: as §1, §2

[5] = system: Staphylococcus aureus ATCC 25923; assay: MIC, binary serial dilution in 96-well plates; type: cell-based; conditions: for MIC: ATCC25923, Staphylococcus aureus ATCC 25923, 24 h at 37 °C; for Aexp: Aexp = 0.1 + log (k/MIC), k = 1.250, compounds synthesized herein
Description: as §1, §2

[6] = system: Candida parapsilosis ATCC 22019; assay: MIC (antifungal), binary serial dilution in 96-well plates; type: cell-based; conditions: Lodderomyces parapsilosis, ATCC22019; Candida parapsilosis ATCC 22019, 24 h at 37 °C
Description: as §1, §2
We further tested the azulene-containing chalcone compounds for antifungal activity against Candida parapsilosis ATCC 22019.

Candida parapsilosis = assay: Antibiofilm activity (crystal violet, A490); type: cell-based; conditions: Lodderomyces parapsilosis, biofilm, read-out: MBEC
Description: (§3) The effect of the chalcones on the biofilm formation was evaluated after the determination of the MICs. Briefly, the plates were emptied, washed to remove the nonadherent cells, fixed with methanol, and stained with crystal violet. The antibiofilm activity was determined after adding 33% acetic acid solution by measuring the absorbance at 490 nm, and the results are listed in Table 6.
(§4) The azulene-chalcone derivatives were tested for their ability to affect biofilm formation since 80% of the world’s microbial biomass is found in the biofilm state. The most efficient compound was again chalcone 6 with MBEC of 0.156–0.625 mg/mL (Table 6).

Escherichia coli = assay: Antibiofilm activity (crystal violet, A490); type: cell-based; conditions: biofilm, read-out: MBEC
Description: as §3, §4

Pseudomonas aeruginosa = assay: Antibiofilm activity (crystal violet, A490); type: cell-based; conditions: biofilm, read-out: MBEC
Description: as §3, §4

Staphylococcus aureus = assay: Antibiofilm activity (crystal violet, A490); type: cell-based; conditions: biofilm, read-out: MBEC
Description: as §3, §4

[7] = Cell viability assay (CellTiter Glo); type: cell-based; conditions: human; HEp-2 cells, 48 h, CellTiter Glo; read-out: IC50 (50% cytotoxic concentration)
Description: To assess the toxicity of the azulene-containing chalcones, the adherent cell line HEp-2 (American Cell Type Collection [ATCC] CCL-23^TM) was used.
In order to estimate the cytotoxicity of the compounds, HEp-2 cells (American Cell Type Collection (ATCC) CCL-23) were exposed to the azulene-containing chalcones at concentrations of 200, 100, 50, and 25 μg/mL and evaluated using CellTiter Glo kit (Promega, Madison, WI, USA) assay. The results presented in Figure 3 are expressed as viability percentages versus control.

| SMILES | Aexp (S. aureus [1]) | MIC (S. aureus [2]) [µg/mL] | further results |
| --- | --- | --- | --- |
| O=C(/C=C/c1ccc(O)cc1)c1ccccc1 [Nr. Crtl. 16] | 1.100 | 125 (≈ 557 µM) |  |
| COc1cc(/C=C/C(=O)c2ccccc2)ccc1O [Nr. Crtl. 1] | 0.498 | 500 (≈ 1970 µM) |  |
| O=C(/C=C/c1cccc(O)c1)c1ccc(Cl)cc1 [Nr. Crtl. 20] | 1.100 | 125 (≈ 483 µM) |  |
| COc1ccc(/C=C/C(=O)c2ccc(Cl)cc2)cc1O [Nr. Crtl. 26] | 1.401 | 62.5 (≈ 216 µM) |  |
| O=C(O)c1ccc(C(=O)/C=C/c2ccc(C(F)(F)F)cc2)cc1 [Nr. Crtl. 11] | 1.021 | 150 (≈ 468 µM) |  |
| COc1cc(/C=C/C(=O)c2ccc(Cl)cc2)ccc1O [Nr. Crtl. 9] | 0.799 | 250 (≈ 866 µM) |  |
| O=C(/C=C/c1cc(C(F)(F)F)cc(C(F)(F)F)c1)c1ccc(O)cc1 [Nr. Crtl. 36] | 2.720 | 3 (≈ 8.33 µM) |  |
| O=C(O)c1ccc(C(=O)/C=C/c2cc(Cl)cc(Cl)c2)cc1 [Nr. Crtl. 29] | 1.595 | 40 (≈ 125 µM) |  |
| O=C(/C=C/c1cc(Br)c2cccccc1-2)c1ccc2cccccc1-2 [Compound 8, (E)-1-(Azulen-1-yl)-3-(3-bromoazulen-1-yl)prop-2-en-1-one] |  |  | MIC [3]: 625 µg/mL (≈ 1610 µM); MIC [4]: 625 µg/mL (≈ 1610 µM); MIC [5]: 1250 µg/mL (≈ 3230 µM); Aexp [5]: 0.100; MIC [6]: 312 µg/mL (≈ 806 µM); minimal effective concentration (Candida parapsilosis): 312 µg/mL; minimal effective concentration (Escherichia coli): 625 µg/mL; minimal effective concentration (Pseudomonas aeruginosa): 1250 µg/mL; minimal effective concentration (Staphylococcus aureus): 1250 µg/mL; IC50 at 48 h [7]: 93.5 µg/mL (≈ 242 µM) |
| O=C(O)c1ccc(C(=O)/C=C/c2cccc(C(F)(F)F)c2)cc1 [Nr. Crtl. 28] | 1.595 | 40 (≈ 125 µM) |  |
| O=C(O)c1ccc(C(=O)/C=C/c2cccc(Br)c2)cc1 [Nr. Crtl. 24] | 1.322 | 75 (≈ 226 µM) |  |
| COc1cccc(/C=C/C(=O)c2ccc(Cl)cc2)c1O [Nr. Crtl. 8] | 0.799 | 250 (≈ 866 µM) |  |
| O=C(/C=C/c1ccccc1O)c1ccc(Cl)cc1 [Nr. Crtl. 19] | 1.100 | 125 (≈ 483 µM) |  |
| O=C(/C=C/c1cccc(Br)c1)c1ccc(O)cc1 [Nr. Crtl. 33] | 1.896 | 20 (≈ 66 µM) |  |
| O=C(O)c1ccc(C(=O)/C=C/c2cccc(Cl)c2)cc1 [Nr. Crtl. 23] | 1.322 | 75 (≈ 262 µM) |  |
| O=C(O)c1ccc(C(=O)/C=C/c2ccccc2Br)cc1 [Nr. Crtl. 14] | 1.021 | 150 (≈ 453 µM) |  |
| O=C(/C=C/c1ccc(Cl)cc1Cl)c1ccc(O)cc1F [Nr. Crtl. 32] | 1.896 | 20 (≈ 64.3 µM) |  |
| O=C(/C=C/c1c(Cl)ccc(Cl)c1Cl)c1ccc(O)cc1 [Nr. Crtl. 35] | 2.197 | 10 (≈ 30.5 µM) |  |
| O=C(/C=C/c1ccc(O)cc1)c1ccc(Cl)cc1 [Nr. Crtl. 21] | 1.100 | 125 (≈ 483 µM) |  |
| O=C(/C=C/c1ccccc1O)c1ccccc1 [Nr. Crtl. 27] | 1.401 | 62.5 (≈ 279 µM) |  |

| SMILES | Aexp (S. aureus [1]) | MIC (S. aureus [2]) [µg/mL] | further results |
| --- | --- | --- | --- |
| O=C(/C=C/c1ccc2cccccc1-2)c1ccc(O)cc1 [Compound 2, (E)-3-(Azulen-1-yl)-1-(4-hydroxyphenyl)prop-2-en-1-one] |  |  | MIC [3]: 625 µg/mL (≈ 2280 µM); MIC [4]: 625 µg/mL (≈ 2280 µM); MIC [5]: 1250 µg/mL (≈ 4560 µM); Aexp [5]: 0.100; MIC [6]: 312 µg/mL (≈ 1140 µM); minimal effective concentration (Candida parapsilosis): 312 µg/mL; minimal effective concentration (Escherichia coli): 625 µg/mL; minimal effective concentration (Pseudomonas aeruginosa): 625 µg/mL; minimal effective concentration (Staphylococcus aureus): 1250 µg/mL; IC50 at 48 h [7]: 97.5 µg/mL (≈ 355 µM) |
| O=C(/C=C/c1ccc(Cl)cc1Cl)c1cc(F)c(O)c(F)c1 [Nr. Crtl. 10] | 1.021 | 150 (≈ 456 µM) |  |
| O=C(O)c1ccc(C(=O)/C=C/c2cccc([N+](=O)[O-])c2)cc1 [Nr. Crtl. 5] | 0.720 | 300 (≈ 1010 µM) |  |
| O=C(O)c1ccc(C(=O)/C=C/c2ccccc2C(F)(F)F)cc1 [Nr. Crtl. 4] | 0.720 | 300 (≈ 937 µM) |  |
| O=C(/C=C/c1ccc(Cl)cc1Cl)c1ccc(O)cc1 [Nr. Crtl. 31] | 1.896 | 20 (≈ 68.2 µM) |  |
| O=C(/C=C/c1cccc(O)c1)c1ccccc1 [Nr. Crtl. 6] | 0.799 | 250 (≈ 1110 µM) |  |
| COc1cccc(/C=C/C(=O)c2ccccc2)c1O [Nr. Crtl. 18] | 1.100 | 125 (≈ 492 µM) |  |
| Cc1cc(C)cc(/C=C/C(=O)c2ccc(C(=O)O)cc2)c1 [Nr. Crtl. 25] | 1.322 | 75 (≈ 268 µM) |  |
| COc1cc(/C=C/C(=O)c2ccc(Cl)cc2)cc(OC)c1O [Nr. Crtl. 2] | 0.498 | 500 (≈ 1570 µM) |  |
| O=C(O)c1ccc(C(=O)/C=C/c2ccccc2Cl)cc1 [Nr. Crtl. 13] | 1.021 | 150 (≈ 523 µM) |  |
| COc1ccc(/C=C/C(=O)c2ccccc2)cc1O [Nr. Crtl. 7] | 0.799 | 250 (≈ 983 µM) |  |
| O=C(/C=C/c1cccc(Cl)c1Cl)c1ccc(O)cc1 [Nr. Crtl. 34] | 2.021 | 15 (≈ 51.2 µM) |  |
| O=C(/C=C/c1ccc(Cl)cc1Cl)c1ccc(O)c(F)c1 [Nr. Crtl. 3] | 0.720 | 300 (≈ 964 µM) |  |
| O=C(O)c1ccc(C(=O)/C=C/c2ccc(Cl)cc2)cc1 [Nr. Crtl. 12] | 1.021 | 150 (≈ 523 µM) |  |
| O=C(O)c1ccc(C(=O)/C=C/c2cc(Br)cc(Br)c2)cc1 [Nr. Crtl. 38] | 2.896 | 2 (≈ 4.88 µM) |  |
| O=C(O)c1ccc(C(=O)/C=C/c2cc(C(F)(F)F)cc(C(F)(F)F)c2)cc1 [Nr. Crtl. 37] | 2.896 | 2 (≈ 5.15 µM) |  |
| O=C(/C=C/c1ccc(O)c(O)c1)c1ccccc1 [Nr. Crtl. 17] | 1.100 | 125 (≈ 520 µM) |  |
| O=C(/C=C/c1ccc(O)c(O)c1)c1ccc(Cl)cc1 [Nr. Crtl. 22] | 1.100 | 125 (≈ 455 µM) |  |
| O=C(O)c1ccc(C(=O)/C=C/c2ccc(Cl)cc2Cl)cc1 [Nr. Crtl. 30] | 1.595 | 40 (≈ 125 µM) |  |
| O=C(O)c1ccc(C(=O)/C=C/c2cc(F)cc(F)c2)cc1 [Nr. Crtl. 15] | 1.021 | 150 (≈ 520 µM) |  |
